For experiment [1], the system named is Staphylococcus aureus S13E. In words: MIC, standard agar-dilution assay, Staphylococcus aureus S13E. In kind it is cell-based.
A further experiment relates to Mycoplasma synoviae. The experiment in a line: MIC, broth-dilution microtiter test, Mycoplasma synoviae. The note with it: Mycoplasma synoviae, broth-dilution microtiter. It counts as cell-based. From the text: (§1) The MIC's in Table X were obtained using conventional broth-dilution microtiter tests.
Experiment [2] relates to Staphylococcus aureus X1.1. The experiment in a line: MIC, standard agar-dilution assay, Staphylococcus aureus X1.1. In kind it is cell-based.
The next experiment has as its system Streptococcus bovis 80. In words: MIC, broth-dilution microtiter test, Streptococcus bovis 80. In kind it is cell-based. To be noted: Streptococcus bovis 80, broth-dilution microtiter.
Text: as §1

Experiment [3] relates to Staphylococcus epidermidis EPI1. The experiment in a line: MIC, standard agar-dilution assay, Staphylococcus epidermidis EPI1. It counts as cell-based.
In experiment [4] the test system is Pasteurella multocida 17E. In words: MIC, broth-dilution microtiter test, Pasteurella multocida 17E. In kind it is cell-based. To be noted: Pasteurella multocida 17E, bovine isolate, broth-dilution microtiter.
Text: as §1

The subject of another experiment is Streptococcus Group 9960. In words: MIC, standard agar-dilution assay, Streptococcus Group 9960. It counts as cell-based. To be noted: Streptococcus Group 9960, agar dilution. Background: In agar dilution the substance is mixed into plates at graded concentrations.
The subject of experiment [5] is Pasteurella hemolytica 22C. In words: MIC, broth-dilution microtiter test, Pasteurella hemolytica 22C. In kind it is cell-based. To be noted: Pasteurella hemolytica 22C, broth-dilution microtiter.
Text: as §1

The subject of experiment [6] is Haemophilus influenzae R252. In words: MIC, standard agar-dilution assay, Haemophilus influenzae R252. To be noted: Haemophilus influenzae R252, ampicillin-resistant strain. In kind it is cell-based.
The test system of experiment [7] is Pasteurella multocida 60A. In words: MIC, broth-dilution microtiter test, Pasteurella multocida 60A. It counts as cell-based.
Text: as §1

The subject of experiment [8] is Streptococcus pyogenes C203. In words: MIC, standard agar-dilution assay, Streptococcus pyogenes C203. In kind it is cell-based.
A further experiment deals with Staphylococcus aureus. In words: MIC, broth-dilution microtiter test, Staphylococcus aureus. It counts as cell-based. The note with it: broth-dilution microtiter.
Text: as §1

In experiment [9] the test system is Staphylococcus aureus V41. The experiment in a line: MIC, standard agar-dilution assay, Staphylococcus aureus V41. In kind it is cell-based.
The subject of a further experiment is Mycoplasma hyorhinis. The experiment in a line: MIC, broth-dilution microtiter test, Mycoplasma hyorhinis. In kind it is cell-based.
Text: as §1

The test system of another experiment is Mycoplasma gallisepticum. In words: MIC, broth-dilution microtiter test, Mycoplasma gallisepticum. In kind it is cell-based. To be noted: Mycoplasma gallisepticum, broth-dilution microtiter.
Text: as §1

The test system of experiment [10] is Staphylococcus epidermidis EPI2. In words: MIC, standard agar-dilution assay, Staphylococcus epidermidis EPI2. It counts as cell-based.
For experiment [11], the system named is Streptococcus pneumoniae Park I. The experiment in a line: microbe, parasite or virus in culture. In kind it is cell-based. The note with it: Streptococcus pneumoniae Park I, agar dilution.
Experiment [12] has as its system Haemophilus influenzae Holt. In words: MIC, standard agar-dilution assay, Haemophilus influenzae Holt. It counts as cell-based. The note with it: Haemophilus influenzae Holt, ampicillin-sensitive strain.
In experiment [13] the test system is Staphylococcus aureus X400. The experiment in a line: MIC, standard agar-dilution assay, Staphylococcus aureus X400. In kind it is cell-based.
For experiment [14], the system named is Streptococcus Group D X66. The experiment in a line: MIC, standard agar-dilution assay, Streptococcus Group D X66. To be noted: Streptococcus Group D X66, agar dilution. In kind it is cell-based.
Experiment [15] concerns Streptococcus pyogenes C203. The experiment in a line: In vivo protection of mice experimentally infected with S. pyogenes C203. To be noted: mice, doses given 1 and 4 hours post-infection. As to the method:
The C-20 modified derivatives of this invention have shown in vivo antimicrobial activity against experimentally-induced infections in laboratory animals. When two doses of test compound were administered to mice experimentally infected with S. pyogenes C203, the activity observed was measured as an ED50 value [effective dose in mg/kg to protect 50% of the test animals: see Warren Wick, et al., J. Bacteriol. 81, 233-235 (1961)].

Where [16] appears, read: Staphylococcus aureus S13E, agar dilution.
The mark [17] stands for this setting: Staphylococcus aureus X1.1, agar dilution.
Where [18] appears, read: Staphylococcus epidermidis EPI1, agar dilution.
Where [19] appears, read: Pasteurella multocida 60A, avian isolate, broth-dilution microtiter.
Setting [20] is: Streptococcus pyogenes C203, agar dilution.
The mark [21] stands for this setting: Staphylococcus aureus V41, penicillin-resistant strain, agar dilution.
Setting [22] is: Mycoplasma hyorhinis, broth-dilution microtiter.
Where [23] appears, read: Staphylococcus epidermidis EPI2, agar dilution.
The mark [24] stands for this setting: Staphylococcus aureus X400, methicillin-resistant strain, agar dilution.

Values after ≈ are worked out from the molar mass of the structure shown. Where two headings read alike, the source gives them in different places.

As for `CCC1OC(=O)CC(O)C(C)C(OC2OC(C)C(O)C(N(C)C)C2O)C(CCO[N+](=O)[O-])CC(C)C(=O)C=CC(C)=CC1COC1OC(C)C(O)C(OC)C1OC` (stereo not shown) [Compound 28, 20-DH-20-O-NO2-desmycosin], the MIC is 0.25 µg/mL (≈ 0.305 µM) in experiment [1] (Staphylococcus aureus, S13E); 0.78 µg/mL (≈ 0.952 µM) with Mycoplasma synoviae (Mycoplasmopsis synoviae, read-out: MIC); 0.25 µg/mL (≈ 0.305 µM) in experiment [2] (Staphylococcus aureus, X1.1); 12.5 µg/mL (≈ 15.3 µM) in the experiment with Streptococcus bovis 80 (Streptococcus equinus, read-out: MIC); 0.25 µg/mL (≈ 0.305 µM) in experiment [3] (Staphylococcus epidermidis, EPI1); 25 µg/mL (≈ 30.5 µM) in [4] (read-out: MIC). Also, the MIC is 8 µg/mL (≈ 9.77 µM) in the experiment on Streptococcus Group 9960 (GROUP9960, read-out: MIC); 25 µg/mL (≈ 30.5 µM) in experiment [5] (read-out: MIC); 16 µg/mL (≈ 19.5 µM) in experiment [6] (read-out: MIC); 50 µg/mL (≈ 61.1 µM) in experiment [7] (Pasteurella multocida, 60A); 0.25 µg/mL (≈ 0.305 µM) in experiment [8] (Streptococcus pyogenes, C203); 1.56 µg/mL (≈ 1.9 µM) in the experiment with Staphylococcus aureus (read-out: MIC). Moreover, the MIC was found to be 0.25 µg/mL (≈ 0.305 µM) in experiment [9] (Staphylococcus aureus, V41); 50 µg/mL (≈ 61.1 µM) with Mycoplasma hyorhinis (Mycoplasma); 0.78 µg/mL (≈ 0.952 µM) in the experiment on Mycoplasma gallisepticum (Mycoplasmoides gallisepticum, read-out: MIC); 0.25 µg/mL (≈ 0.305 µM) in experiment [10] (Staphylococcus epidermidis, EPI2); 2 µg/mL (≈ 2.44 µM) in experiment [11] (read-out: MIC); 16 µg/mL (≈ 19.5 µM) in experiment [12] (read-out: MIC). Besides, the MIC in [13] (Staphylococcus aureus, X400) was found to be 0.25 µg/mL (≈ 0.305 µM); in experiment [14] (read-out: MIC), 8 µg/mL (≈ 9.77 µM).
`CCC1OC(=O)CC(O)C(C)C(OC2OC(C)C(O)C(N(C)C)C2O)C(CCOc2nnc(-c3ccccc3)c(-c3ccccc3)n2)CC(C)C(=O)C=CC(C)=CC1COC1OC(C)C(O)C(OC)C1OC` (stereo not shown) [Compound 50, 20-DH-20-O-(5,6-Diphenyl-1,2,4-triazin-3-yl)desmycosin]: the MIC in experiment [1] (setting [16]) turned out to be 0.5 µg/mL (≈ 0.497 µM); in the experiment on Mycoplasma synoviae it was 0.39 µg/mL (≈ 0.388 µM); in experiment [2] (setting [17]), 0.5 µg/mL (≈ 0.497 µM); in the experiment on Streptococcus bovis 80, 3.12 µg/mL (≈ 3.1 µM); in [3] (setting [18]) it was 0.5 µg/mL (≈ 0.497 µM); in experiment [4], 25 µg/mL (≈ 24.9 µM). Besides, the MIC in the experiment with Streptococcus Group 9960 is 4 µg/mL (≈ 3.98 µM); in [5], “-- (Not active at 50 mcg/ml, the highest level tested)”; in [6] (agar dilution) it was 64 µg/mL (≈ 63.7 µM); in experiment [7] (setting [19]) it was 25 µg/mL (≈ 24.9 µM); in [8] (setting [20]), 0.5 µg/mL (≈ 0.497 µM); with Staphylococcus aureus, 1.56 µg/mL (≈ 1.55 µM). In addition, the MIC in experiment [9] (setting [21]) was 0.5 µg/mL (≈ 0.497 µM); in the experiment with Mycoplasma hyorhinis (setting [22]), 12.5 µg/mL (≈ 12.4 µM); against Mycoplasma gallisepticum, not above 0.048 µg/mL; in experiment [10] (setting [23]), 0.5 µg/mL (≈ 0.497 µM); in experiment [11], 0.5 µg/mL (≈ 0.497 µM); in experiment [12] (agar dilution), 64 µg/mL (≈ 63.7 µM). For the same molecule, the figures for the MIC in experiment [13] (setting [24]) and in experiment [14] were 1 µg/mL (≈ 0.995 µM) and 4 µg/mL (≈ 3.98 µM), respectively. For the same molecule, the “ED50, Oral” value in [15] is recorded as more than 50 mg/kg × 2. Moreover, the “ED50, Subcutaneous” value in [15] is listed as more than 10 mg/kg × 2.
For the molecule `CCC1OC(=O)CC(O)C(C)C(OC2OC(C)C(O)C(N(C)C)C2O)C(CCOc2ncnc3ccccc23)CC(C)C(=O)C=CC(C)=CC1COC1OC(C)C(O)C(OC)C1OC` (stereo not shown) [Compound 51, 20-DH-20-O-(Quinazolin-4-yl)desmycosin], the MIC in experiment [1] (setting [16]) was found to be 0.25 µg/mL (≈ 0.277 µM); with Mycoplasma synoviae, 0.39 µg/mL (≈ 0.432 µM); in experiment [2] (setting [17]), 0.25 µg/mL (≈ 0.277 µM); against Streptococcus bovis 80, 0.78 µg/mL (≈ 0.865 µM); in experiment [3] (setting [18]), 0.25 µg/mL (≈ 0.277 µM); in experiment [4] it was 12.5 µg/mL (≈ 13.9 µM). In addition, the MIC with Streptococcus Group 9960 was 4 µg/mL (≈ 4.43 µM); in experiment [5] it was “-- (Not active at 50 mcg/ml, the highest level tested)”; in [6] (agar dilution), 32 µg/mL (≈ 35.5 µM); in experiment [7] (setting [19]), 12.5 µg/mL (≈ 13.9 µM); in experiment [8] (setting [20]) it was 0.5 µg/mL (≈ 0.554 µM); in the experiment with Staphylococcus aureus, 0.78 µg/mL (≈ 0.865 µM). For the same molecule, the MIC in experiment [9] (setting [21]) is 0.25 µg/mL (≈ 0.277 µM); in the experiment with Mycoplasma hyorhinis (setting [22]), 12.5 µg/mL (≈ 13.9 µM); in the experiment on Mycoplasma gallisepticum it was not above 0.048 µg/mL; in [10] (setting [23]) it was 0.12 µg/mL (≈ 0.133 µM); in [11] it was 0.5 µg/mL (≈ 0.554 µM); in [12] (agar dilution), 16 µg/mL (≈ 17.7 µM). In addition, the MIC in [13] (setting [24]) was found to be 0.5 µg/mL (≈ 0.554 µM); in experiment [14], 4 µg/mL (≈ 4.43 µM). Also, in [15], the “ED50, Oral” value was more than 50 mg/kg × 2. Besides, the “ED50, Subcutaneous” value in experiment [15] turned out to be 5.4 mg/kg × 2.

These data come from patent US4443436A, “C-20-Modified macrolide derivatives of the macrolide antibiotics tylosin, desmycosin, macrocin, and lactenocin” (Eli Lilly and Company, priority 1982, dated 1984).
